US4937232A, “Inhibition of protein kinase C by long-chain bases” (priority 1988, dated 1990)
Entries after “also recorded” stand apart in the source; their conditions may differ. Like-named read-outs stand apart in the source and are kept apart here.

Experiments:
human neutrophils = assay: Oxygen consumption (oxidative burst) of human neutrophils; type: cell-based; details: for RATE of oxygen consumption, NO SPHINGANINE: activator alone; for IC50: read-out: Concentration required for 50% inhibition
From the text: Human neutrophils were obtained by continuous flow leukapheresis from normal adults. Residual erythrocytes were removed by hypotonic lysis with a resulting purity of >95% neutrophils. Alternatively peripheral blood was obtained by phlebotomy and neutrophils were isolated by HESPAN (6% Hetastarch, 0.9% NaCl) sedimentaion of erythrocytes, centrifugation through lymphocyte separation medium (9.4% sodium diatrizoate, 6.2% Ficoll), and hypotonic lysis of residual erythrocytes. Isolated cells were resuspended in phosphate buffered saline (PBS)-glucose, containing 0.6 mM CaCl2, 2.6 mM KCl, 1.5 mM KH2 PO4, 0.5 mM MgCl2, 136 mM NaCl, 8 mM Na2 HPO4, 5.5 mM glucose.
Oxygen consumption was measured using a Clark-type electrode with YSI model 53 oxygen monitor. Assays were conducted at 37° C. with 6.5×10^6 cells per ml with a total volume of either 2.5 ml or 4 ml. Effectors were injected into the electrode chamber using a Hamilton syringe. Initial slopes after the addition of the stimuli were used for rate calculations. For activators with a lag prior to the onset of the oxidative burst, maximal rates following the lag were used.

protein kinase C [1] = assay: Triton X-100 mixed micellar assay for protein kinase C activity; type: biochemical, rat; details: mixed micellar assay
Procedure: Protein kinase C was partially purified from rat brain as described by Hanrun et al (J. Biol. Chem., 260, 10043, 1985), which is hereby incorporated by reference.
Protein kinase C was assayed with Triton X-100 mixed micelles as described by Hanrun et al, (ibid.), Sphingosine was dried down with the lipid cofactors.

HL-60 cells = assay: PMA-induced adherence (attachment) of HL-60 cells; type: cell-based, human; details: for inhibition of PMA-induced attachment: 8 nM PMA
Procedure: Cells were centrifuged at 600 g for 3 min, and added at 1×10^5 cells per well in 12-well culture dishes. Medium, PMA, and long-chain bases (prepared as the 1:1 molar complex with fatty acid-free bovine serum albumin) at the indicated concentrations were added for a total volume of 2.0 ml. After the desired times, the cells in suspension were counted and checked for viability (trypan blue exclusion) with a hemacytometer. The attached cells were quantitated by measuring DNA content according to the method of West et al (Anal. Biochem., 147, 289-295, 1985) and by assaying for acid phosphatase according to the method of Schnyder (J. Exp. Med., 148, 434-445, 1978).

protein kinase C [2] = assay: Mixed micellar protein kinase C activity assay for lysosphingolipids (Table VI); type: biochemical; details: for Inhibition of Protein Kinase C, concentration giving 50% inhibition, (mol %): 0.3% Triton X-100, 1 mol % = 43 μM; for IC50: 0.3% Triton X-100 mixed micelles, 2 mol % dioleoylglycerol, read-out: Inhibition of Protein Kinase C, concentration giving 50% inhibition; for IC50 / inhibition of protein kinase C activity: 6 mol % phosphatidylserine; for inhibition of protein kinase C activity: 2 mol % sn-1,2-dioleoylglycerol, 100 μM Ca2+
Procedure: (§1) TABLE VI: Inhibition of protein kinase C activity and phorbol-dibutyrate binding by lysosphingolipids. […] The remaining two columns show the observed effects of the lysosphingolipids of protein kinase C activity and phorbol diester binding in vitro and in human platelets. Lysogangliosides were prepared from their parental gangliosides by hydrolysis in methanolic KOH esentially as described by Neuenhofer et al. in Bioch. 24, 525, 1985. During this preparation, with approximately 90-95% conversion, the N-acetate of N-acetylneuraminic acid is partially hydrolyzed. Fatty acids were partitioned into heptane after acidification of the methanolic reaction mixture. Galactosylsphingosine, glucosylsphingosine, and lactosylsphingosine were prepared as previously described for galactosylsphingosine (Radin, Lipids 9, 358, 1974) Sphingosylphosphorylcholine was prepared by hydrolysis in HCl-butanol (Kaller, Biochemische Zeitschrift 334, 451, 1961). The purity of the lyso derivatives (greater than 90%) was checked by thin layer chromatography (TLC) on silica gel H plates developed in chloroform/methanol/2N NH4 OH (65/35/9) and visualized by ninhydrin reaction for N-lyso compounds, by α-naphthol/sulfuric acid for both gangliosides and lysogangliosides,and by a phospholipid spray for sphingosylphosphorylcholine. Lysosphingolipids were quantitated by reaction of the amine group with trinitrobenzenesulfonate. Gangliosides and lysosphingolipids were also quantitated by reaction with anthrone. The lysosphingolipids were then studied for their effect on protein kinase C activity. Protein kinase C was purified to near homogeneity by the method of Wolf et al. (J. Biol. Chem. 260, 15718, 1985), and activity was measured using a mixed micellar assay (described herein). Lysosphingolipids were added directly in aqueous solution, and allowed to equilibrate with the Triton X-100 (0.3% w/v) mixed micelles containing 6 mol % phosphatidylserine and 2 mol % dioleoylglycerol. […] Phorbol-dibutyrate binding was measured in a mixed micellar assay. Lysosphingolipids inhibited phorbol-dibutyrate binding to protein kinase C in the presence of Triton X-100 mixed micelles containing 20 mol % phosphatidylserine. […] The difference is related to the higher concentration of phosphatidylserine used in the binding assay, as both activity and binding show a high cooperative dependence on phosphatidylserine, which modulates the inhibition by lysosphingolipids. Phorbol-dibutyrate binding to human platelets and 40 kDa phosphorylation in platelets were carried out as described above. Lysosphingolipids inhibited phorbol dibutyrate binding to human platelets at concentrations in the 10-50 μM range. Inhibition of 40 kDa phosphorylation occurred over the same concentration range.

protein kinase C [3] = assay: Phorbol-dibutyrate binding to protein kinase C, mixed micellar assay (Table VI); details: Triton X-100 mixed micelles, 20 mol % phosphatidylserine
Procedure: as §1

[4] = tested on: protein kinase C-induced phosphorylation of the 40 KDa polypeptide; assay: 40K (40 kDa) protein phosphorylation in human platelets; type: cell-based; details: concentrations less than 100 μM
Procedure: They were then suspended in modified Tyrode's buffer to a concentration of 2.5×10^8 platelets/ml.
^32 Pi at 0.2 mCi/ml was added to the platelet suspension and labelling was allowed to proceed for 75 minutes at 37° C., after which the platelets were pelleted at 600×g for 10 minutes and resuspended in Tyrode's buffer to the same concentration. They were then aliquoted in Eppendorf microfuge tubes and preincubated at 37° C. for 5 minutes with the varying concentrations of sphingosine. Platelets were then stimulated with either 5 μM dioctanoylglycerol (added as an ethanol solution with the final concentration of ethanol 0.5%), 10 μM TPA, or 1 unit/ml thrombin. The reactions were stopped after 30 seconds by the addition of an equal volume of 2× sample buffer, and the samples were then boiled for 3 minutes. […] Gels were subsequently fixed in water/methanol/acetic acid (60:30:10), dried, and autoradiographed.

[5] = Homo sapiens, Neutrophil, oxidative burst, PMA activation
[6] = oxidative burst, PMA activation

## CCCCC/C=C\C/C=C\C/C=C\C/C=C\CCCC(=O)O [Arachidonate, reference compound]
Human neutrophils
  RATE of oxygen consumption, NO SPHINGANINE: 4.2 nmols O2 consumed/min/10^6 cells

## CCCCCCCCCCCCCCCC(=O)C(N)CO (stereo not shown) [3-ketosphinganine]
Protein kinase C [1]
  inhibition of protein kinase C (specificity): inhibitors

## CCCCCCCCCCCCCCC[C@@H](O)[C@H](CO)NC(C)=O [N-acetylsphinganine, reference compound]
HL-60 cells; at up to 500 μM
  inhibition of PMA-induced attachment: not inhibitory
Human neutrophils; [5]
  IC50: > 100 µM

## 3-amino-3-hydroxy-3-phenyl-propanol [reference compound]
Human neutrophils; [6]
  IC50: > 100 µM

## CCCCCCCCCCCCCCCCCCN [Stearylamine, reference compound]
HL-60 cells; Homo sapiens, HL-60, read-out: 50% inhibition of PMA-induced attachment
  IC50: 10 µM
Protein kinase C [1]
  inhibition of protein kinase C (specificity): nearly as effective as sphingosine
Human neutrophils; [5]
  IC50: 25 µM

## CCCCCCCCCCCCC/C=C/[C@@H](O)[C@@H](N)COP(=O)([O-])OCC[N+](C)(C)C [sphingosylphosphorylcholine]
Protein kinase C [2]
  Inhibition of Protein Kinase C, concentration giving 50% inhibition, (mol %): 2.8 mol %
  IC50: 120 µM
Protein kinase C [3]
  Inhibition of [3H]PDBu Binding to Protein Kinase, (mol %): 11.6 mol %
Protein kinase C [3]; read-out: Inhibition of [3H]PDBu Binding to Protein Kinase
  IC50: 500 µM

## CCCCCCCCCCCCC/C=C/[C@@H](O)[C@@H](N)CO[C@@H]1O[C@H](CO)[C@@H](O[C@@H]2O[C@H](CO)[C@H](O[C@H]3O[C@H](CO)[C@H](O)[C@H](O)[C@H]3O)[C@H](O)[C@H]2O)[C@H](O)[C@H]1O [globotriosylsphingosine]
Protein kinase C [2]
  Inhibition of Protein Kinase C, concentration giving 50% inhibition, (mol %): 4.2 mol %
  IC50: 180 µM

## CCCCCCCCCCCCCCCC[N+](C)(C)C.[Br-] [CTAB, cetyl trimethylammonium bromide]
Protein kinase C [1]; listed as cetyl triethylammonium bromide
  inhibition of protein kinase C (specificity): inactive; also recorded: not to be inhibitors
Human neutrophils; [5]
  IC50: > 100 µM

## CCCCCCCC(=O)OCC(CO)OC(=O)CCCCCCC (stereo not shown) [Dioctanoyl Glycerol, 1,2-dioctanoylglycerol, reference compound]
Human neutrophils
  RATE of oxygen consumption, NO SPHINGANINE: 6.1 nmols O2 consumed/min/10^6 cells

## CCCCCCCCCCCCC/C=C/[C@@H](O)[C@H](CO)NC(C)=O [N-acetylsphingosine]
Protein kinase C [1]
  inhibition of protein kinase C (specificity): without effect; also recorded: not to be inhibitors

## sphingomyelin [reference compound]
Protein kinase C [2]
  inhibition of protein kinase C activity: None of the parent compounds inhibited

## CCCCCCCCCCCCC/C=C/[C@@H](O)[C@H](CO[C@@H]1O[C@H](CO)[C@H](O)[C@H](O)[C@H]1O)NC(C)=O [reference compound]
[4]
  effect on 40 kDa phosphorylation in platelets: did not affect
Protein kinase C [2]
  inhibition of protein kinase C activity: None of these N-acetyl derivatives inhibited

## CCCCCCCCCCCCC/C=C/[C@@H](O)[C@H](COP(=O)([O-])OCC[N+](C)(C)C)NC(C)=O [reference compound]
[4]
  effect on 40 kDa phosphorylation in platelets: did not affect
Protein kinase C [2]
  inhibition of protein kinase C activity: None of these N-acetyl derivatives inhibited

## NC(CO)C(O)c1ccccc1 (stereo not shown) [1,3-dihydroxy-2-amino-3-phenylpropane]
HL-60 cells
  inhibition of PMA-induced attachment: did not inhibit
Protein kinase C [1]
  inhibition of protein kinase C (specificity): not to be inhibitors
Protein kinase C [1]; listed as 1,3-dihydroxy-2-amino-3 phenylpropane
  inhibition of protein kinase C (specificity): without effect

## O[C@H]1[C@H]2[C@H](O)CCCN2C[C@H]1O [Swainsonine]
Protein kinase C [1]
  inhibition of protein kinase C (specificity): not an inhibitor

## CCCCCCCCN [Octylamine, reference compound]
HL-60 cells
  inhibition of PMA-induced attachment: did not inhibit
Protein kinase C [1]
  inhibition of protein kinase C (specificity): did not inhibit
Human neutrophils; [5]
  IC50: 300 µM

## CCCCCCCCCCCCCCCC(=O)NC(CO)C(O)CCCCCCCCCCCCCCC (stereo not shown) [N-palmitoyldihydrosphingosine, reference compound]
HL-60 cells
  inhibition of PMA-induced attachment: not inhibitory

## CCCCCCCCCCCCCCC[C@H](O)[C@@H](N)CO (relative stereo) [threo-Sphinganine]
Protein kinase C [1]
  inhibition of protein kinase C (specificity): inhibitors
Human neutrophils; [5]
  IC50: 24 µM
Human neutrophils; [6]
  times less effective than erythro-sphinganine: 3-4 times
